In this experiment the target is T1, p101/p110γ protein (PI3Kγ) (Homo sapiens, UniProt P48736).
T1 construct: HA; made in house; host or cells: Spodoptera frugiperda (Sf9) cells, baculovirus coinfection
In words: PI3Kγ In Vitro Kinase Assay. It counts as biochemical. Conditions: purified recombinant p101/p110γ with G protein β1/γ2 subunits; 20 μM ATP, 25 μM PIP2; 20 minutes at room temperature; radioactive PIP3 readout. The gist of the method:
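Baculovirus/Sf9-expressed p101/p110γ (~2.7 nM) with G protein β1/γ2, 20 μM ATP plus [γ-32P]ATP, PIP2/PE micelles (25 μM PIP2, 300 μM PE, 10 mM MgCl2) in HEPES buffer. Reaction 20 min at room temperature, stopped with H3PO4; radiolabelled PIP3 counted on filters to derive IC50 (μM).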

T1 sequence (P48736 whole entry, species assumed): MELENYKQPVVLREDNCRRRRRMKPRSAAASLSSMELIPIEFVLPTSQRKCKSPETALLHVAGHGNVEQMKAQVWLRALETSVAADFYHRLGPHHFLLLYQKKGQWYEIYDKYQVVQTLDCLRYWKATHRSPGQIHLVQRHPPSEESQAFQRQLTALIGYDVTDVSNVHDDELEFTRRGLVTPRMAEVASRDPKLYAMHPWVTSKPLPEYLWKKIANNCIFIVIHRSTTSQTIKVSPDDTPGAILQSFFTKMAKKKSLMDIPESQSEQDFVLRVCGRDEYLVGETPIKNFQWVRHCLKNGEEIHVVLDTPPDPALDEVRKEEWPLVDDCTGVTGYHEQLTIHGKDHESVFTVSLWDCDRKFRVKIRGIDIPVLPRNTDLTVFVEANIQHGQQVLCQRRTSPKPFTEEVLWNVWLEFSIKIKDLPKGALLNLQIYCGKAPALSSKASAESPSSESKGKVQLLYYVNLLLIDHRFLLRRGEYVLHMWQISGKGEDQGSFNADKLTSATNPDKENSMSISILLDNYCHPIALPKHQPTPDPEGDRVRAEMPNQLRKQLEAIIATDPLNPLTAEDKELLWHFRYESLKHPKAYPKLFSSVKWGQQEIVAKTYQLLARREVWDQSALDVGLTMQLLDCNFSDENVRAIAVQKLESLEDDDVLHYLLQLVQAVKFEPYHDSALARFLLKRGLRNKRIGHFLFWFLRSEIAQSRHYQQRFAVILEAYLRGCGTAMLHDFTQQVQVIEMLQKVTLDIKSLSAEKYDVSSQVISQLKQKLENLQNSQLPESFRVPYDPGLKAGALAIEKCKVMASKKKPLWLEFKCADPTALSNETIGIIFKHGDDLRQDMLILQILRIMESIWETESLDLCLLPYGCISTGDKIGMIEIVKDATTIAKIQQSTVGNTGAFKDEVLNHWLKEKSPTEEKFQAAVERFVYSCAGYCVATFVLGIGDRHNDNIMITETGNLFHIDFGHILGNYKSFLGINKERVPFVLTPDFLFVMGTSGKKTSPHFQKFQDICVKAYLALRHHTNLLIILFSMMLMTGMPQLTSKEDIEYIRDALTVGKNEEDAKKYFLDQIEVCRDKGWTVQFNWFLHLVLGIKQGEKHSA
T1 sequence (Q8WYR1 whole entry partner, species assumed): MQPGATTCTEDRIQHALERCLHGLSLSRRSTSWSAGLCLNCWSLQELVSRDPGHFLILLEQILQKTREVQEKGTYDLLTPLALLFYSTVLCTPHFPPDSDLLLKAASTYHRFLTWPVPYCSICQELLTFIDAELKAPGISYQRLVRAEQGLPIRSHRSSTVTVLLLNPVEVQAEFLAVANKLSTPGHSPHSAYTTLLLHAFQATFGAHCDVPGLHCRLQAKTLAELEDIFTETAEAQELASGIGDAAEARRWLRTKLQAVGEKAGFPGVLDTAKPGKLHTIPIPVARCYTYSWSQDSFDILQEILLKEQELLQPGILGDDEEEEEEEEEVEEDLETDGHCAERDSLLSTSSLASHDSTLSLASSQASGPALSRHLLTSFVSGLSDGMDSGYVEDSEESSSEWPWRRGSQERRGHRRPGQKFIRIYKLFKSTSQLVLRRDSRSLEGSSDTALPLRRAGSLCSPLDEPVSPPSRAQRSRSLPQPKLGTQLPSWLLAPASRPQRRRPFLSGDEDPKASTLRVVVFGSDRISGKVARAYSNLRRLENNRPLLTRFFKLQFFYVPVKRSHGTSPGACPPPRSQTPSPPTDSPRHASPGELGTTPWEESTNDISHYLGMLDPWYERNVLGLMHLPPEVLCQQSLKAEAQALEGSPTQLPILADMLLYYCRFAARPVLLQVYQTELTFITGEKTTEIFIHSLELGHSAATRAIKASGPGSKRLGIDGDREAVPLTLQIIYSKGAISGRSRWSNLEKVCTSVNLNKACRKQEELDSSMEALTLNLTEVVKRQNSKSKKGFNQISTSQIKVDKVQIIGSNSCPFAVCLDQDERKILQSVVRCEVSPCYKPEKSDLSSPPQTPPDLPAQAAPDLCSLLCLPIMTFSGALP

In the case of `O=C1NC(=S)SC1=Cc1ccc2c(c1)N(C(=O)Nc1ccc(Cl)cc1C(F)(F)F)CCCO2` [Example 120, 2-(4-Oxo-2-thioxo-thiazolidin-5-ylidenemethyl)-7,8-dihydro-6H-5-oxa-9-aza-benzocycloheptene-9-carboxylic acid (4-chloro-2-trifluoromethyl-phenyl)-amide], the 50% inhibitory concentration (IC50) amounted to 1870 nM. Take `O=C1NC(=S)SC1=Cc1ccc2c(c1)N(C(=O)Nc1cc(Cl)cc(Cl)c1)CCO2` [Example 76, 6-(4-Oxo-2-thioxo-thiazolidin-5-ylidenemethyl)-2,3-dihydro-benzo[14]oxazine-4-carboxylic acid (3,5-dichloro-phenyl)-amide]: the IC50 is 33 nM. Turning to `O=C1NC(=S)SC1=Cc1ccc2c(c1)N(C(=O)CCC1CCCC1)CCO2` [Example 36, 5-[4-(3-Cyclopentyl-propionyl)-3,4-dihydro-2H-1,4-benzoxazin-6-ylmethylene]-2-thioxo-thiazolidin-4-one], the half-inhibitory concentration (IC50) is 5 nM. The value for `COc1ccc(CC(=O)N2CCOc3ccc(C=C4SC(=S)NC4=O)cc32)cc1OC` [Example 20, 5-{4-[2-(3,4-Dimethoxy-phenyl)-acetyl]-3,4-dihydro-2H-1,4-benzoxazin-6-ylmethylene}-2-thioxo-thiazolidin-4-one] was 73 nM; that for `COc1cccc(C(=O)N2CCOc3ccc(C=C4SC(=S)NC4=O)cc32)c1` [Example 21, 5-[4-(3-Methoxy-benzoyl)-3,4-dihydro-2H-1,4-benzoxazin-6-ylmethylene]-2-thioxo-thiazolidin-4-one] was 100 nM; that for `O=C1NC(=S)SC1=Cc1ccc2c(c1)N(S(=O)(=O)c1ccccc1)CCO2` [Example 3, 5-[(4-benzenesulfonyl)-3,4-dihydro-2H-benzo[1,4]oxazine-6-ylmethylene)-2-thioxo-thiazolidin-4-one] was 1130 nM. The value for `CCC(=O)N1CCOc2ccc(C=C3SC(=S)NC3=O)cc21` [Example 93, 4-(4-Propionyl-3,4-dihydro-2H-1,4-benzoxazin-6-ylmethylene)-2-thioxo-thiazolidin-4-one] was 12 nM; that for `O=C1NC(=S)SC1=Cc1ccc2c(c1)N(C(=O)c1ccc3c(c1)OC(F)(F)O3)CCO2` [Example 48, 5-[4-(2,2-Difluoro-1,3-benzodioxole-5-carbonyl)-3,4-dihydro-2H-1,4-benzoxazin-6-ylmethylene]-2-thioxo-thiazolidin-4-one] was 715 nM; that for “2-(4-Oxo-2-thioxo-thiazolidin-5-ylidenemethyl)-7,8-dihydro-6H-5-oxa-9-aza-benzocycloheptene-9-carboxylic acid (3,5-dimethoxy-phenyl)-amide [Example 113]” was 1320 nM. Consider “5-[9-(3,4-Dichloro-benzoyl)-6,7,8,9-tetrahydro-5-oxa-9-aza-benzocyclohepten-2-ylmethylene]-2-thioxo-thiazolidin-4-one [Example 114]”, for which the IC50 was determined as 1380 nM.

Take `Cc1cc(C)cc(CN2CCCOc3ccc(C=C4SC(=S)NC4=O)cc32)c1` [Example 7, 5-[9-(3,5-Dimethyl-benzyl)-6,7,8,9-tetrahydro-5-oxa-9-aza-benzocyclohepten-2-ylmethylene]-2-thioxo-thiazolidin-4-one]: the IC50 turned out to be 780 nM.

`O=C1NC(=S)SC1=Cc1ccc2c(c1)N(C(=O)c1ccc(-c3ccccc3)cc1)CCO2` [Example 24, 5-[4-(Biphenyl-4-carbonyl)-3,4-dihydro-2H-1,4-benzoxazin-6-ylmethylene]-2-thioxo-thiazolidin-4-one]: the IC50 came out at 560 nM.

For `O=C1NC(=S)SC1=Cc1ccc2c(c1)N(C(=O)c1cccs1)CCO2` [Example 42, 5-[4-(Thiophene-2-carbonyl)-3,4-dihydro-2H-1,4-benzoxazin-6-ylmethylene]-2-thioxo-thiazolidin-4-one], the IC50 is 150 nM. The value for `Cc1ccc(F)c(C(=O)N2CCOc3ccc(C=C4SC(=S)NC4=O)cc32)c1` [Example 89, 5-[4-(2-Fluoro-5-methyl-benzoyl)-3,4-dihydro-2H-benzo[1,4]oxazin-6-ethylene]-2-thioxo-thiazolidin-4-one] was 200 nM; that for `CC(=O)OC(C)C(=O)N1CCOc2ccc(C=C3SC(=S)NC3=O)cc21` (stereo not shown) [Example 100, Acetic acid 1-methyl-2-oxo-2-[6-(4-oxo-2-thioxo-thiazolidin-5-ylidenemethyl)-2,3-dihydro-1,4-benzoxazin-4-yl]-ethyl ester] was 535 nM. To `O=C1NC(=S)SC1=Cc1ccc2c(c1)N(C(=O)Nc1ccc(Cl)cc1)CCO2` [Example 77, 6-(4-Oxo-2-thioxo-thiazolidin-5-ylidenemethyl)-2,3-dihydro-benzo[1,4]oxazine-4-carboxylic acid (4-chloro-phenyl)-amide] belongs 2 nM; to “5-[9-(5-tert-Butyl-2-methyl-furan-3-carbonyl)-6,7,8,9-tetrahydro-5-oxa-9-aza-benzocyclohepten-2-ylmethylene]-2-thioxo-thiazolidin-4-one [Example 125]”, 4600 nM. For “2-(4-Oxo-2-thioxo-thiazolidin-5-ylidenemethyl)-7,8-dihydro-6H-5-oxa-9-aza-benzocycloheptene-9-carboxylic acid p-tolyl ester [Example 107]”, the IC50 was determined as 704 nM.

`COC(=O)c1ccc(OC(=O)N2CCCOc3ccc(C=C4SC(=S)NC4=O)cc32)cc1` [Example 108, 2-(4-Oxo-2-thioxo-thiazolidin-5-ylidenemethyl)-7,8-dihydro-6H-5-oxa-9-aza-benzocycloheptene-9-carboxylic acid 4-methoxycarbonyl-phenyl ester]: the 50% inhibitory concentration (IC50) worked out at 640 nM. As to `COc1cc(CN2CCCOc3ccc(C=C4SC(=S)NC4=O)cc32)cc(OC)c1` [Example 6, 5-[9-(3,5-Dimethoxy-benzyl)-6,7,8,9-tetrahydro-5-oxa-9-aza-benzocyclohepten-2-ylmethylene]-2-thioxo-thiazolidin-4-one], the IC50 worked out at 151 nM. Consider `O=C1NC(=S)SC1=Cc1ccc2c(c1)N(C(=O)Cc1ccc(Cl)c(Cl)c1)CCO2` [Example 15], for which the IC50 amounted to 7.3 nM. The value for `O=C1NC(=S)SC1=Cc1ccc2c(c1)N(CCc1ccccc1)CCCO2` [Example 16, 5-(9-Phenethyl-6,7,8,9-tetrahydro-5-oxa-9-aza-benzocyclohepten-2-ylmethylene)-2-thioxo-thiazolidin-4-one] was 80 nM; that for “5-[4-(7,7-Dimethyl-2-oxo-bicyclo[2.2.1]hept-1-ylmethanesulfonyl)-3,4-dihydro-2H-1,4-benzoxazin-6-ylmethylene]-2-thioxo-thiazolidin-4-one [Example 60]” was 330 nM. The value for `O=C1NC(=S)SC1=Cc1ccc2c(c1)N(C(=O)Nc1ccc(Cl)c(Cl)c1)CCO2` [Example 78, 6-(4-Oxo-2-thioxo-thiazolidin-5-ylidenemethyl)-2,3-dihydro-benzo[1,4]oxazine-4-carboxylic acid (3,4-dichloro-phenyl)-amide] was 5 nM. For `CCCCC(CC)C(=O)N1CCOc2ccc(C=C3SC(=S)NC3=O)cc21` (stereo not shown) [Example 99, 5-[4-(2-Ethyl-hexanoyl)-3,4-dihydro-2H-1,4-benzoxazin-6-ylmethylene]-2-thioxo-thiazolidin-4-one], the IC50 was 275 nM.

For the compound `O=C1NC(=S)SC1=Cc1ccc2c(c1)N(C(=O)c1cc(Cl)sc1Cl)CCO2` [Example 51, 5-[4-(2,5-Dichloro-thiophene-3-carbonyl)-3,4-dihydro-2H-1,4-benzoxazin-6-ylmethylene]-2-thioxo-thiazolidin-4-one], the IC50 was 860 nM. For the compound `COc1ccc(NC(=O)N2CCOc3ccc(C=C4SC(=S)NC4=O)cc32)cc1OC` [Example 75, 6-(4-Oxo-2-thioxo-thiazolidin-5-ylidenemethyl)-2,3-dihydro-benzo[14]oxazine-4-carboxylic acid (3,4-dimethoxy-phenyl)-aniide], the IC50 worked out at 14 nM. The value for `O=C1NC(=S)SC1=Cc1ccc2c(c1)N(C(=O)c1ccccc1)CCO2` [Example 1, 5-[4-(1-Phenyl-methanoyl)-3,4-dihydro-2H-benzo[1,4]oxazine-6-ylmethylene]-2-thioxo-thiazolidin-4-one] was 56 nM; that for `COc1cc(C(=O)N2CCOc3ccc(C=C4SC(=S)NC4=O)cc32)cc(OC)c1OC` [Example 22, 2-Thioxo-5-[4-(3,4,5-trimethoxy-benzoyl)-3,4-dihydro-2H-1,4-benzoxazin-6-ylmethylene]-thiazolidin-4-one] was 4000 nM. Consider `CC(=O)N1CCC(C(=O)N2CCOc3ccc(C=C4SC(=S)NC4=O)cc32)CC1` [Example 102, 5-[4-(1-Acetyl-piperidine-4-carbonyl)-3,4-dihydro-2H-1,4-benzoxazin-6-ylmethylene]-2-thioxo-thiazolidin-4-one], for which the IC50 stood at 37 nM.

Take `O=C1NC(=S)SC1=Cc1ccc2c(c1)N(C(=O)c1cc(F)cc(F)c1)CCO2` [Example 46, 5-[4-(3,5-Difluoro-benzoyl)-3,4-dihydro-2H-1,4-benzoxazin-6-ylmethylene]-2-thioxo-thiazolidin-4-one]: the IC50 amounted to 372 nM. The value for `O=C1NC(=S)SC1=Cc1ccc2c(c1)N(C(=O)c1ccc3c(c1)OCO3)CCO2` [Example 71, 5-[4-(1,3-Benzodioxole-5-carbonyl)-3,4-dihydro-2H-1,4-benzoxazin-6-ylmethylene]-2-thioxo-thiazolidin-4-one] was 935 nM; that for `CS(=O)(=O)c1ccc(C(=O)N2CCOc3ccc(C=C4SC(=S)NC4=O)cc32)cc1` [Example 72] was 174 nM. To `Cc1cc(C)cc(NC(=O)N2CCOc3ccc(C=C4SC(=S)NC4=O)cc32)c1` [Example 79, 6-(4-Oxo-2-thioxo-thiazolidin-5-ylidenemethyl)-2,3-dihydro-benzo[14]oxazine-4-carboxylic acid (3,5-dimethyl-phenyl)-amide] belongs 9 nM.

(Values after US20040138199A1, “Benzoxazines and derivatives thereof as therapeutic agents” (priority 2002, published 2004).)
